# Experiments:
# [1] = test system: souches de S. aureus issues de prélèvements de plaies du pied infectées chez des patients diabétiques; test: Antibiotic susceptibility test (MIC, 96-well microplate, OD 600 nm) in Mueller-Hinton medium (MH); format: cell-based; design: key to Classification (S) ou (R) en MH: S (sensible); R (résistante)
# Text: (§1) • La Figure 1 représente des courbes de croissance de bactéries en fonction du milieu de culture. Sur cette figure, les ordonnées correspondent au logarithme d'unités formant colonie par millilitre de milieu de culture (Log UFC/ml) et les abscisses, au temps en heure (H). La Figure 1A représente les courbes correspondant à la croissance de 2 souches de S. aureus, Newman (gauche) et SAC1 (droite), dans le milieu BHI (courbe avec indicateurs ronds) et un exemple de milieu selon l'invention (MP) (courbe avec indicateurs carrés). La Figure 1B représente les courbes correspondant à la croissance de 2 souches de P. aeruginosa, PAO1 (gauche) et PAC1 (droite), dans le milieu BHI (courbe avec indicateurs ronds) et un exemple de milieu selon l'invention (MP) (courbe avec indicateurs carrés). La Figure 1C représente les courbes correspondant à la croissance de 2 souches cliniques S. aureus SAC1 et P. aeruginosa PAC1, en coculture dans le milieu BHI (P. aeruginosa BHI ou S. aureus BHI) et un exemple de milieu selon l'invention (MP) (P. aeruginosa MP ou S. aureus MP). La mesure de différence significative, réalisée par le test de Student, entre les valeurs d'UFC/mL est exprimée, soit par (***) qui correspond à une p-value <0,001, soit par (**) qui correspond à une p-value <0,01. • La Figure 2 représente les résultats obtenus d'une détermination de l'adhésion et de la formation de biofilm par dénombrement à 24h. Sur cette figure, les ordonnées correspondent au logarithme d'unités formant colonie par millilitre de milieu de culture (Log UFC/ml). La Figure 2A représente un histogramme ou diagramme en bâton du nombre de bactéries dénombrées suite à des cultures séparées de souche S. aureus Newman (Newman), S. aureus SAC1 (SAC 1), P. aeruginosa PAO1 (PAO1) ou P. aeruginosa PAC1 (PAC1), pendant 24H dans un milieu BHI (BHI) (bâtons noirs) ou dans un exemple de milieu selon l'invention (MP) (bâtons gris). La Figure 2B montre sous forme d'histogramme le nombre de bactéries dénombrées suite à des co-cultures des souches de référence S. aureus Newman et P. aeruginosa PAO1 (PAO1/Newman), ainsi que du couple de souches cliniques S. aureus SAC1 et P. aeruginosa PAC1 (PAC 1/SAC1), pendant 24H dans un milieu BHI (BHI) (bâtons noirs) ou dans un exemple de milieu selon l'invention (MP) (bâtons gris). La mesure de différence significative, réalisée par le test de Student, entre les valeurs d'UFC est exprimée, soit par (***) qui correspond à une p-value <0,001, soit par (**) qui correspond à une p-value <0,01. • La Figure 3 représente les résultats obtenus d'une détermination de sensibilité à des antibiotiques de souches cliniques de S. aureus issues d'infections de plaies du pied chez le diabétique. Les données cliniques, anonymisées, nécessaires à l'interprétation des résultats, consistaient en l'antibiothérapie donnée au patient, ainsi que la qualification par les médecins hospitaliers d'un succès ou échec thérapeutique. La définition de succès ou échec thérapeutique est définie comme suit. Le patient commence et suit l'antibiothérapie prescrite et un deuxième prélèvement microbiologique est effectué lors du dernier jour de traitement de la 1ère antibiothérapie (± 2 jours). Ce prélèvement est utilisé pour déterminer la présence/absence du pathogène ciblé par l'antibiothérapie, S. aureus. Si ce prélèvement a montré la persistance d'un S. aureus, l'antibiothérapie est en échec. A l'inverse, en cas d'absence de S. aureus, l'antibiothérapie est associée à un succès thérapeutique. Les antibiogrammes ont été réalisés classiquement sur une durée de 18h ± 2h en accord avec les recommandations de l'EUCAST. Une gamme de l'antibiotique à tester a été réalisée. • La Figure 3A montre sous forme d'histogramme les résultats des CMI déduites d'antibiogrammes sur 11 souches testées en présence d'amoxicilline / clavulanate de potassium (commercialisé par exemple sous le nom d'Augmentin (marque déposée)).
# [2] = test system: souches de S. aureus issues de prélèvements de plaies du pied infectées chez des patients diabétiques; test: Antibiotic susceptibility test (MIC, 96-well microplate, OD 600 nm) in wound medium of the invention (MP); format: cell-based
# Text: as §1
# [3] = souche associée à un succès thérapeutique
substance,measurement,setting,value
amoxicilline / clavulanate de potassium [amoxicilline/clavulanate de potassium],CMI en milieu MH,[1]; souche C01P012,"0,25 mg/L / µg/L"
same,Classification (S) ou (R) en MH,[1]; souche C01P012,(S)
same,CMI en milieu MH,[1]; souche C03P001,"0,25 mg/L / µg/L"
same,Classification (S) ou (R) en MH,[1]; souche C03P001,(S)
same,CMI en milieu MH,[1]; souche C03P008,"0,5 mg/L / µg/L"
same,Classification (S) ou (R) en MH,[1]; souche C03P008,(S)
same,CMI en milieu MH,[1]; souche C04P003,"0,25 mg/L / µg/L"
same,Classification (S) ou (R) en MH,[1]; souche C04P003,(S)
same,CMI en milieu MH,[1]; souche C04P005f,"0,5 mg/L / µg/L"
same,Classification (S) ou (R) en MH,[1]; souche C04P005f,(S)
same,CMI en milieu MH,[1]; souche C04P005i,"0,5 mg/L / µg/L"
same,Classification (S) ou (R) en MH,[1]; souche C04P005i,(S)
same,CMI en milieu MH,[1]; souche C04P007,"0,25 mg/L / µg/L"
same,Classification (S) ou (R) en MH,[1]; souche C04P007,(S)
same,CMI en milieu MH,[1]; souche C06P001f,"0,25 mg/L / µg/L"
same,Classification (S) ou (R) en MH,[1]; souche C06P001f,(S)
same,CMI en milieu MH,[1]; souche C06P001 i,"0,25 mg/L / µg/L"
same,Classification (S) ou (R) en MH,[1]; souche C06P001 i,(S)
same,CMI en milieu MH,[1]; souche C06P003f,"0,25 mg/L / µg/L"
same,Classification (S) ou (R) en MH,[1]; souche C06P003f,(S)
same,CMI en milieu MH,[1]; souche C06P003i,"0,25 mg/L / µg/L"
same,Classification (S) ou (R) en MH,[1]; souche C06P003i,(S)
same,CMI en milieu plaie MP,[2]; souche C01P012,"0,25 mg/L / µg/L"
same,Classification (S) ou (R) en MP,[2]; souche C01P012,"(S) (valeur de CMI mesurés dans l'exemple de milieu selon l'invention (MP), inférieure ou égale au seuil et ont été et peuvent être classifiées comme sensibles (noté S dans le tableau 5A))"
same,CMI en milieu plaie MP,[2]; souche C03P001,"0,5 mg/L / µg/L"
same,Classification (S) ou (R) en MP,[2]; souche C03P001,"(S) (valeur de CMI mesurés dans l'exemple de milieu selon l'invention (MP), inférieure ou égale au seuil et ont été et peuvent être classifiées comme sensibles (noté S dans le tableau 5A))"
same,CMI en milieu plaie MP,[2]; souche C03P008,1 mg/L / µg/L
same,Classification (S) ou (R) en MP,[2]; souche C03P008,(R) (valeur de CMI mesurée dans l'exemple de milieu selon l'invention (MP) supérieure au seuil et peuvent être classifiées comme résistantes (noté R dans le tableau 5A))
same,CMI en milieu plaie MP,[2]; souche C04P003,"0,25 mg/L / µg/L"
same,Classification (S) ou (R) en MP,[2]; souche C04P003,"(S) (valeur de CMI mesurés dans l'exemple de milieu selon l'invention (MP), inférieure ou égale au seuil et ont été et peuvent être classifiées comme sensibles (noté S dans le tableau 5A))"
same,CMI en milieu plaie MP,[2]; souche C04P005f,"0,5 mg/L / µg/L"
same,Classification (S) ou (R) en MP,[2]; souche C04P005f,"(S) (valeur de CMI mesurés dans l'exemple de milieu selon l'invention (MP), inférieure ou égale au seuil et ont été et peuvent être classifiées comme sensibles (noté S dans le tableau 5A))"
same,CMI en milieu plaie MP,[2]; souche C04P005i,"0,5 mg/L / µg/L"
same,Classification (S) ou (R) en MP,[2]; souche C04P005i,"(S) (valeur de CMI mesurés dans l'exemple de milieu selon l'invention (MP), inférieure ou égale au seuil et ont été et peuvent être classifiées comme sensibles (noté S dans le tableau 5A))"
same,CMI en milieu plaie MP,[2]; souche C04P007,1 mg/L / µg/L
same,Classification (S) ou (R) en MP,[2]; souche C04P007,(R) (valeur de CMI mesurée dans l'exemple de milieu selon l'invention (MP) supérieure au seuil et peuvent être classifiées comme résistantes (noté R dans le tableau 5A))
same,CMI en milieu plaie MP,[2]; souche C06P001f,2 mg/L / µg/L
same,Classification (S) ou (R) en MP,[2]; souche C06P001f,(R) (valeur de CMI mesurée dans l'exemple de milieu selon l'invention (MP) supérieure au seuil et peuvent être classifiées comme résistantes (noté R dans le tableau 5A))
same,CMI en milieu plaie MP,[2]; souche C06P001 i,4 mg/L / µg/L
same,Classification (S) ou (R) en MP,[2]; souche C06P001 i,(R) (valeur de CMI mesurée dans l'exemple de milieu selon l'invention (MP) supérieure au seuil et peuvent être classifiées comme résistantes (noté R dans le tableau 5A))
same,CMI en milieu plaie MP,[2]; souche C06P003f,1 mg/L / µg/L
same,Classification (S) ou (R) en MP,[2]; souche C06P003f,(R) (valeur de CMI mesurée dans l'exemple de milieu selon l'invention (MP) supérieure au seuil et peuvent être classifiées comme résistantes (noté R dans le tableau 5A))
same,CMI en milieu plaie MP,[2]; souche C06P003i,2 mg/L / µg/L
same,Classification (S) ou (R) en MP,[2]; souche C06P003i,(R) (valeur de CMI mesurée dans l'exemple de milieu selon l'invention (MP) supérieure au seuil et peuvent être classifiées comme résistantes (noté R dans le tableau 5A))
cotrimoxazole,CMI en milieu MH,[1]; souche C01P0 01,"0,5 mg/L"
same,Classification (S) ou (R) en MH,[1]; souche C01P0 01,(S)
same,CMI en milieu MH,[1]; souche C01P0 11,4 mg/L
same,Classification (S) ou (R) en MH,[1]; souche C01P0 11,(S)
same,CMI en milieu MH,[1]; souche C03P0 02,1 mg/L
same,Classification (S) ou (R) en MH,[1]; souche C03P0 02,(S)
same,CMI en milieu MH,[1]; souche C03P0 07,1 mg/L
same,Classification (S) ou (R) en MH,[1]; souche C03P0 07,(S)
same,CMI dans le milieu MH,[1]; [3],4 mg/L
same,CMI dans un exemple de milieu selon l'invention (MP),[2]; 3 souches associées à un échec thérapeutique,16 mg/L
same,CMI en milieu plaie MP,[2]; souche C01P0 01,16 mg/L
same,Classification (S) ou (R) en MP,[2]; souche C01P0 01,(R) (valeur de CMI mesurée dans l'exemple de milieu selon l'invention supérieure au seuil et peuvent être classifiées comme résistantes (noté R dans le tableau 5B))
same,CMI en milieu plaie MP,[2]; souche C01P0 11,8 mg/L
same,Classification (S) ou (R) en MP,[2]; souche C01P0 11,(S) (avantageusement inférieur au seuil et peut être classifiée comme sensible (noté S dans le tableau 5B))
same,CMI en milieu plaie MP,[2]; souche C03P0 02,16 mg/L
same,Classification (S) ou (R) en MP,[2]; souche C03P0 02,(R) (valeur de CMI mesurée dans l'exemple de milieu selon l'invention supérieure au seuil et peuvent être classifiées comme résistantes (noté R dans le tableau 5B))
same,CMI en milieu plaie MP,[2]; souche C03P0 07,16 mg/L
same,Classification (S) ou (R) en MP,[2]; souche C03P0 07,(R) (valeur de CMI mesurée dans l'exemple de milieu selon l'invention supérieure au seuil et peuvent être classifiées comme résistantes (noté R dans le tableau 5B))
same,CMI mesurée dans un exemple de milieu selon l'invention (MP),[2]; [3],8 mg/L

# Reference: patent EP4060021A1, “MIMETIC MICROBIOLOGICAL CULTURE MEDIUM AND USES THEREOF” (BIOFILM PHARMA, priority 2021, dated 2022)
